From patent US20240041827A1, “COMPOSITIONS FOR THE TREATMENT OF FAT RELATED CONDITIONS AND DISORDERS” (priority 2020, published 2024)

Tested on: human visceral preadipocytes
Assay: in vitro
Experimental: Human visceral preadipocytes were seeded in 96-well white clear bottom plates at 10,000 cells per well in 100 μl pre-adipocyte medium and incubated overnight at 37° C. 5% CO2. On the following day, adipogenic differentiation was induced by addition of 100 μl/well differentiation medium and incubation continued for 5 days. Adipogenic differentiation was verified by microscopic evaluation, addition of adipored reagents and fluorescent measurement at Ex485 nm/Em572 nm. […] Staurosporine (1 μM) and 0.2% DMSO were used as controls. Plates were incubated at 37° C. 5% CO2 for 2, 6 and 24 hours. Following incubation, cytotoxicity was measured using Cell Titer Glo 2.0 (Promega).
Test Item RZL-12 (1-300 μM) was prepared on the day of the testing as 150 mM stock solutions in DMSO. The 150 mM represents a 500×stock of the highest desired tested concentration. The 150 mM stock solution was first serially diluted in DMSO to acquire 500×stock solutions for each of the RZL-012 concentrations. The 500×stock solutions were then diluted 1:25 in medium to acquire 20×intermediate stock solutions. Finally, the 20×intermediate stock solutions were further diluted 1:20 in the assay (on the plate) that included seeded cells.
The 600 μM represents a 20× stock of the highest desired tested concentration. […] Finally, the 20×intermediate stock solutions were further diluted 1:20 in the assay plate that included seeded cells.
Human visceral pre-adipocytes (HPrAD-vis): HPrAD-vis cells (Lonza cat #PT-5005) were thawed at 37° C. and transferred into 50 ml tubes containing pre-adipocytes PGM-2 growth medium (PBM-2, 10% FBS, 1-glutamine, GA-1000). Cells were centrifuged at 300 g for 10 minutes, the supernatant was removed (Leaving about 1 ml of wash medium for not disrupting the cells) and 2 ml fresh PGM-2 medium was added. After resuspension, cells were counted and seeded in T-75 and T25 flasks at a density of 9,000 cells/cm^2 ([…], 225,000 cells/T25 flask). Medium was changed every 2-3 days until reached confluence of 70%.
Cells were sub-cultured only once, as soon as they reached 70% confluence. For this purpose, the culture medium of each flask was removed and cells were washed once with 5 ml PBS. The flask was shaken to ensure that the entire surface was covered and the PBS was removed. Then, 3 ml/T75 flask or 1 ml/T25 flask of fresh dedicated Trypsin/EDTA solution (from Lonza) was added and the flasks were incubated for 3-4 minutes at RT until ˜90% cells were detached. The Trypsin/EDTA solution was then neutralized by addition of 6 ml/T75 flask or 3 ml/T25 flask of full PGM-2 growth medium. Cells were collected in 50 ml tubes and centrifuged 10 minutes at 300 g. The supernatant was removed and the cells were resuspended in 3 ml fresh medium. Cells were then counted using a haemacytometer slide after being diluted 1:2 in trypan blue (SIGMA). For sub-culturing, cells were seeded in new T75 flasks at a density of 9,000 cells/cm^2 containing 15 ml fresh growth medium. Alternatively, the cells were seeded in 96-well culture plates at a density of 10,000 cells/well for the cell treatments.
HPrAD-vis cells: HPrAD-vis passaged once were seeded in 96-well plates as described above (10000cells/well in 100 μl medium) and allowed to settle overnight at 37° C., 5% CO2. Following day, adipogenic differentiation was induced by addition of 100 μl/well differentiation medium and incubated for 5 days. Adipogenic differentiation was verified by microscopic evaluation, addition of adipored reagents and fluorescent measurement at Ex485 nm/Em572 nm. In the morning of day 6, test and reference items were prepared as described above. Cells' medium was replaced with 90 μl fresh differentiation medium. […] Staurosporine (1 μM) and 0.2% DMSO were used as controls. Plates were incubated at 37° C. 5% CO2 for 2, 6 and 24 hours. Following incubation, cell viability was determined using the CellTiter-Gg® viability reagent (Promega) with reading of plates for luminescence. […]

C[N+](C)(C)CCCCCn1c2ccc(Br)cc2c2cc(Br)ccc21.[Cl-] [RZL-012, 5-(3,6-dibromo-9H-carbazol-9-yl)-N,N,N-trimethylpentan-1-aminium chloride]
Average RZL-012 and collagenase induced cell death (% vs untreated cells) (RZL12 10 μM, Collagenase 0, 2 h of incubation): 10.4%
Average RZL-012 and collagenase induced cell death (% vs untreated cells) (RZL12 10 μM, Collagenase 0, 24 h of incubation): 12.80%
Average RZL-012 and collagenase induced cell death (% vs untreated cells) (RZL12 10 μM, Collagenase 0.1 μM, 2 h of incubation): 4.9%
Average RZL-012 and collagenase induced cell death (% vs untreated cells) (RZL12 10 μM, Collagenase 0.1 μM, 24 h of incubation): 9.43%
Average RZL-012 and collagenase induced cell death (% vs untreated cells) (RZL12 10 μM, Collagenase 0.3 μM, 2 h of incubation): 5.0%
Average RZL-012 and collagenase induced cell death (% vs untreated cells) (RZL12 10 μM, Collagenase 0.3 μM, 24 h of incubation): 5.50%
Average RZL-012 and collagenase induced cell death (% vs untreated cells) (RZL12 10 μM, Collagenase 1 μM, 2 h of incubation): 7.8%
Average RZL-012 and collagenase induced cell death (% vs untreated cells) (RZL12 10 μM, Collagenase 1 μM, 24 h of incubation): 16.08%
Average RZL-012 and collagenase induced cell death (% vs untreated cells) (RZL12 10 μM, Collagenase 3 μM, 2 h of incubation): 17.7%
Average RZL-012 and collagenase induced cell death (% vs untreated cells) (RZL12 10 μM, Collagenase 3 μM, 24 h of incubation): 33.99%
Average RZL-012 and collagenase induced cell death (% vs untreated cells) (RZL12 10 μM, Collagenase 10 μM, 2 h of incubation): 22.3%
Average RZL-012 and collagenase induced cell death (% vs untreated cells) (RZL12 10 μM, Collagenase 10 μM, 24 h of incubation): 65.12%
Average RZL-012 and collagenase induced cell death (% vs untreated cells) (RZL12 10 μM, Collagenase 30 μM, 2 h of incubation): 45.0%
Average RZL-012 and collagenase induced cell death (% vs untreated cells) (RZL12 10 μM, Collagenase 30 μM, 24 h of incubation): 80.04%
Average RZL-012 and collagenase induced cell death (% vs untreated cells) (RZL12 30 μM, Collagenase 0, 2 h of incubation): 50.4%
Average RZL-012 and collagenase induced cell death (% vs untreated cells) (RZL12 30 μM, Collagenase 0, 24 h of incubation): 72.72%
Average RZL-012 and collagenase induced cell death (% vs untreated cells) (RZL12 30 μM, Collagenase 0.1 μM, 2 h of incubation): 43.8%
Average RZL-012 and collagenase induced cell death (% vs untreated cells) (RZL12 30 μM, Collagenase 0.1 μM, 24 h of incubation): 28.35%
Average RZL-012 and collagenase induced cell death (% vs untreated cells) (RZL12 30 μM, Collagenase 0.3 μM, 2 h of incubation): 35.0%
Average RZL-012 and collagenase induced cell death (% vs untreated cells) (RZL12 30 μM, Collagenase 0.3 μM, 24 h of incubation): 23.76%
Average RZL-012 and collagenase induced cell death (% vs untreated cells) (RZL12 30 μM, Collagenase 1 μM, 2 h of incubation): 45.8%
Average RZL-012 and collagenase induced cell death (% vs untreated cells) (RZL12 30 μM, Collagenase 1 μM, 24 h of incubation): 31.37%
Average RZL-012 and collagenase induced cell death (% vs untreated cells) (RZL12 30 μM, Collagenase 3 μM, 2 h of incubation): 49.7%
Average RZL-012 and collagenase induced cell death (% vs untreated cells) (RZL12 30 μM, Collagenase 3 μM, 24 h of incubation): 79.97%
Average RZL-012 and collagenase induced cell death (% vs untreated cells) (RZL12 30 μM, Collagenase 10 μM, 2 h of incubation): 33.2%
Average RZL-012 and collagenase induced cell death (% vs untreated cells) (RZL12 30 μM, Collagenase 10 μM, 24 h of incubation): 83.68%
Average RZL-012 and collagenase induced cell death (% vs untreated cells) (RZL12 30 μM, Collagenase 30 μM, 2 h of incubation): 46.0%
Average RZL-012 and collagenase induced cell death (% vs untreated cells) (RZL12 30 μM, Collagenase 30 μM, 24 h of incubation): 90.00%
Average RZL-012 and collagenase induced cell death (% vs untreated cells) (RZL12 100 μM, Collagenase 0, 2 h of incubation): 99.7%
Average RZL-012 and collagenase induced cell death (% vs untreated cells) (RZL12 100 μM, Collagenase 0, 24 h of incubation): 99.89%
Average RZL-012 and collagenase induced cell death (% vs untreated cells) (RZL12 100 μM, Collagenase 0.1 μM, 2 h of incubation): 99.5%
Average RZL-012 and collagenase induced cell death (% vs untreated cells) (RZL12 100 μM, Collagenase 0.1 μM, 24 h of incubation): 99.66%
Average RZL-012 and collagenase induced cell death (% vs untreated cells) (RZL12 100 μM, Collagenase 0.3 μM, 2 h of incubation): 99.3%
Average RZL-012 and collagenase induced cell death (% vs untreated cells) (RZL12 100 μM, Collagenase 0.3 μM, 24 h of incubation): 99.60%
Average RZL-012 and collagenase induced cell death (% vs untreated cells) (RZL12 100 μM, Collagenase 1 μM, 2 h of incubation): 98.9%
Average RZL-012 and collagenase induced cell death (% vs untreated cells) (RZL12 100 μM, Collagenase 1 μM, 24 h of incubation): 99.65%
Average RZL-012 and collagenase induced cell death (% vs untreated cells) (RZL12 100 μM, Collagenase 3 μM, 2 h of incubation): 97.4%
Average RZL-012 and collagenase induced cell death (% vs untreated cells) (RZL12 100 μM, Collagenase 3 μM, 24 h of incubation): 99.89%
Average RZL-012 and collagenase induced cell death (% vs untreated cells) (RZL12 100 μM, Collagenase 10 μM, 2 h of incubation): 72.4%
Average RZL-012 and collagenase induced cell death (% vs untreated cells) (RZL12 100 μM, Collagenase 10 μM, 24 h of incubation): 99.92%
Average RZL-012 and collagenase induced cell death (% vs untreated cells) (RZL12 100 μM, Collagenase 30 μM, 2 h of incubation): 76.4%
Average RZL-012 and collagenase induced cell death (% vs untreated cells) (RZL12 100 μM, Collagenase 30 μM, 24 h of incubation): 99.99%
Average RZL-012 and collagenase induced cell death (% vs untreated cells) (RZL12 300 μM, Collagenase 0, 2 h of incubation): 99.9%
Average RZL-012 and collagenase induced cell death (% vs untreated cells) (RZL12 300 μM, Collagenase 0, 24 h of incubation): 100.00%
Average RZL-012 and collagenase induced cell death (% vs untreated cells) (RZL12 300 μM, Collagenase 0.1 μM, 2 h of incubation): 99.6%
Average RZL-012 and collagenase induced cell death (% vs untreated cells) (RZL12 300 μM, Collagenase 0.1 μM, 24 h of incubation): 99.67%
Average RZL-012 and collagenase induced cell death (% vs untreated cells) (RZL12 300 μM, Collagenase 0.3 μM, 2 h of incubation): 99.6%
Average RZL-012 and collagenase induced cell death (% vs untreated cells) (RZL12 300 μM, Collagenase 0.3 μM, 24 h of incubation): 99.74%
Average RZL-012 and collagenase induced cell death (% vs untreated cells) (RZL12 300 μM, Collagenase 1 μM, 2 h of incubation): 99.1%
Average RZL-012 and collagenase induced cell death (% vs untreated cells) (RZL12 300 μM, Collagenase 1 μM, 24 h of incubation): 99.96%
Average RZL-012 and collagenase induced cell death (% vs untreated cells) (RZL12 300 μM, Collagenase 3 μM, 2 h of incubation): 96.6%
Average RZL-012 and collagenase induced cell death (% vs untreated cells) (RZL12 300 μM, Collagenase 3 μM, 24 h of incubation): 99.76%
Average RZL-012 and collagenase induced cell death (% vs untreated cells) (RZL12 300 μM, Collagenase 10 μM, 2 h of incubation): 89.2%
Average RZL-012 and collagenase induced cell death (% vs untreated cells) (RZL12 300 μM, Collagenase 10 μM, 24 h of incubation): 99.82%
Average RZL-012 and collagenase induced cell death (% vs untreated cells) (RZL12 300 μM, Collagenase 30 μM, 2 h of incubation): 89.5%
Average RZL-012 and collagenase induced cell death (% vs untreated cells) (RZL12 300 μM, Collagenase 30 μM, 24 h of incubation): 100.01%
concentrations at which the cytotoxic effect was observed (at all time points (2, 6, 24 h)): > 30 µM
